The text below walks through data of publication PMC5608352, “Formyl peptide derived lipopeptides disclose differences between the receptors in mouse and men and call the pepducin concept in question” (PLoS ONE, 2017).

“Also recorded” adds a separate entry of the source. Residues, ends and D or L forms follow the SMILES beside them. No end group written: not given here. *: point of attachment. Palmitoyl = CCCCCCCCCCCCCCCC(=O)*

The target in test [1] is T1, mouse neutrophils (Mus musculus, UniProt O88536).
T1 sequence (O88536 1-351): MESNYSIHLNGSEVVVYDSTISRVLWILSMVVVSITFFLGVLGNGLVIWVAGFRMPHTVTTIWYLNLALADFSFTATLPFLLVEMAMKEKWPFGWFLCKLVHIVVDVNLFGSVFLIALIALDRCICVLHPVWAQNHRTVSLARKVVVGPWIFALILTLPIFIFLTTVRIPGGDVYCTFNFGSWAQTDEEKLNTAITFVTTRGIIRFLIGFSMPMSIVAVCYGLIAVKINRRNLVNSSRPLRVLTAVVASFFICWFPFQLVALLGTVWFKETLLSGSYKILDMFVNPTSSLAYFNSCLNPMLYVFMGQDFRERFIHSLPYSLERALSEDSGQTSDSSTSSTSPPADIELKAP
The test is described as follows: Direct activation: superoxide release (isoluminol/HRP chemiluminescence), WT mouse bone marrow neutrophils. The test is classed as cell-based. From the text:
Mice (8–12 weeks of age) were killed by cervical dislocation, the femurs and tibias were removed and freed of soft tissue attachments, and the extreme distal tip of each extremity was cut off. KRG without Ca^2+ and Mg^2+ (KRG-) was forced through the bone by using a 1-mL syringe with a 27-gauge needle. After dispersing cell clumps and removing the debris, the bone marrow granulocytes were isolated according to an earlier described procedure with some modifications. Briefly, a cell suspension in 2 mL of KRG- was laid on top of a three-layer Percoll gradient (1.095, 1.085, and 1.070 g/mL). The density of each Percoll solution was verified using density marker beads. After centrifugation at 500 × g for 30 min at 4°C in a swinging bucket rotor, the lowest band (1.085/1.095 g/mL interface) was collected as the neutrophil fraction. After washing with KRG-, remaining red blood cells were eliminated by hypotonic lysis. After a final wash with KRG-, the cells were resuspended in KRG. The cell number and population of bone marrow cells were determined by flow cytometry based on forward scatter (size) and side scatter (density) localization.
(§1) NADPH-oxidase activity was determined using an isoluminol and HRP-enhanced chemiluminescence (CL) system that allow for the determination of superoxide production. The CL activity was measured in a six-channel Biolumat LB 9505 apparatus (Berthold Co., Wildbad, Germany), using disposable 4-mL polypropylene tubes with 1 mL reaction mixture. The tubes contained 4 U HRP and 10 μg/mL isoluminol together with the cells that were equilibrated in the Biolumat for 5 min at 37°C, after which the stimulus solution (100 μL) was added. The light emission was recorded continuously over time and presented as superoxide production (in arbitrary light units, cpm x10^-6) as a function of time (min). The activity before stimulus addition was recorded as basal line and this activity was not changed in vehicle control samples. Since the FPR/Fpr-mediated superoxide production with respect to the onset and decline are very similar, the peak activities were used to compare the responses induced.
Naïve bone marrow cells produce very low levels of superoxide upon stimulation and to increase this production the cells were routinely primed for one hour at RT followed by TNF-α (10 ng/mL, final concentration) priming for a period of 20 min at 37°C [10]. The cells were then kept on ice until further analysis, as described above. The reason for choosing the chemiluminescence based NADPH-oxidase assay system was that very few cells are required, allowing us to monitor and quantify receptor-mediated events with the limited number of mouse bone marrow neutrophils available.
Data analysis was performed using Graph Pad Prism 7.0. The EC50/IC50 values were determined from experiments in which the activities were normalized to the response induced by maximal response or induced by agonist in the absence of inhibitor. The statistical analysis was performed on raw data using Student’s t-test when two groups were compared or one-way ANOVA with Dunnett’s multiple comparisons test in comparison to the control response when three groups were compared. * p ≤ 0.05 was considered significant.

For the next test, the system named is human neutrophils. The experiment in a line: Direct activation: superoxide release (isoluminol/HRP chemiluminescence), human neutrophils. The test is classed as cell-based. The following applies: 10^5 cells, 37°C, isoluminol/HRP CL, pepducin 1 μM. From the text:
(§2) Human peripheral blood neutrophils were isolated from buffy coats from healthy blood donors using dextran sedimentation and Ficoll-Paque gradient centrifugation as described. The remaining erythrocytes were disrupted by hypotonic lysis and the neutrophils were washed twice, suspended in KRG and, stored on melting ice until use. This isolation process permits cells to be purified with minimal granule mobilization. The buffy coats were obtained from the blood bank at Sahlgrenska University Hospital. Ethics approval was not needed since the buffy coats were provided anonymously and could not be traced back to a specific individual. This is in line with Swedish legislation section code 4§ 3p SFS 2003:460 (Lag om etikprövning av forskning som avser människor).
(§3) NADPH-oxidase activity was determined using an isoluminol and HRP-enhanced chemiluminescence (CL) system that allow for the determination of superoxide production. The CL activity was measured in a six-channel Biolumat LB 9505 apparatus (Berthold Co., Wildbad, Germany), using disposable 4-mL polypropylene tubes with 1 mL reaction mixture. […] The light emission was recorded continuously over time and presented as superoxide production (in arbitrary light units, cpm x10^-6) as a function of time (min). The activity before stimulus addition was recorded as basal line and this activity was not changed in vehicle control samples. […]

The test system of another test is Fpr2^-/- neutrophils. The test is described as follows: Direct activation: superoxide release, Fpr2^-/- mouse neutrophils compared with WT. The test is classed as cell-based. Conditions: pepducin 1 μM; % of peak fMIFL (10 nM) response; p ≤ 0.05 significant. An excerpt:
(§4) C57BL/6 wild-type mice were purchased from Charles River Laboratories and Fpr2^−/− mice generated as described previously, were generously provided by Dr Ji Ming Wang, Frederick National Laboratory for Cancer Research, USA. Mice were kept under standard temperature and light conditions and fed laboratory chow and water ad libitum, at the Department of Rheumatology and Inflammation Research, University of Gothenburg. Sex matched WT and Fpr2^-/- animals (age 8–10 weeks) were used to isolated bone marrow derived neutrophils. The studies performed were approved by the Ethical Committee for Animal Experimentation, Göteborg, Sweden.
(§5) Mice (8–12 weeks of age) were killed by cervical dislocation, the femurs and tibias were removed and freed of soft tissue attachments, and the extreme distal tip of each extremity was cut off. […] The cell number and population of bone marrow cells were determined by flow cytometry based on forward scatter (size) and side scatter (density) localization.
(§6) NADPH-oxidase activity was determined using an isoluminol and HRP-enhanced chemiluminescence (CL) system that allow for the determination of superoxide production. The CL activity was measured in a six-channel Biolumat LB 9505 apparatus (Berthold Co., Wildbad, Germany), using disposable 4-mL polypropylene tubes with 1 mL reaction mixture. […]

The target in test [2] is T2, FPR2 (Homo sapiens, UniProt P25090).
T2 construct: Human peripheral blood neutrophils were isolated from buffy coats from healthy blood donors; endogenous in cells; host or cells: human peripheral blood neutrophils from buffy coats of healthy donors
T2 sequence (P25090 1-351): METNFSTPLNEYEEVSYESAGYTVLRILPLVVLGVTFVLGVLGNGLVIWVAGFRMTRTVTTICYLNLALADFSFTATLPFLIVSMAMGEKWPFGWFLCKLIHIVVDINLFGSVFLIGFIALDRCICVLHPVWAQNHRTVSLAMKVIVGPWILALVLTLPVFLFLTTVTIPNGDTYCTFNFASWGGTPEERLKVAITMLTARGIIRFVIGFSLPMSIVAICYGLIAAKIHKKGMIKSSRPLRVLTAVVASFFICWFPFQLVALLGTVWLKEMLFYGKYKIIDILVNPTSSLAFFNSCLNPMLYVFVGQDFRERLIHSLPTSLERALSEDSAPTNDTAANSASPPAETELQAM
The experiment in a line: Inhibition of WKYMVM-induced superoxide release, human neutrophils. Format: cell-based. The following applies: pepducin 1 μM pre-incubated (mF2Pal16, F1Pal16: 5 min); WKYMVM 50 nM.
From the text: as §2
as §1, with “Since the FPR/Fpr-mediated superoxide production with respect to the onset and decline are very similar, the peak activities were used to compare the responses induced.” left out
Data analysis was performed using Graph Pad Prism 7.0. The EC50/IC50 values were determined from experiments in which the activities were normalized to the response induced by maximal response or induced by agonist in the absence of inhibitor. […]
Human neutrophils (10^5 cells) were pre-incubated without (solid line) or with mF2Pal16 (1 μM) for 5 min before stimulation with A) the FPR2 specific agonist WKYMVM (50 nM, indicated by the arrow). […] The release of superoxide anions was measured continuously. […]

In another test the test system is FPR1. The experiment in a line: Inhibition of fMLF-induced superoxide release, human neutrophils. The test is classed as cell-based. The following applies: pepducin 1 μM; fMLF 50 nM.
From the text: as §2, §3

Test [3] concerns the target T1, mouse neutrophils. The test is described as follows: Receptor (cross-)desensitization, superoxide release, WT mouse neutrophils. The test is classed as cell-based. The following applies: then pepducin 1 μM.
Protocol: NADPH-oxidase activity was determined using an isoluminol and HRP-enhanced chemiluminescence (CL) system that allow for the determination of superoxide production [29, 30]. The CL activity was measured in a six-channel Biolumat LB 9505 apparatus (Berthold Co., Wildbad, Germany), using disposable 4-mL polypropylene tubes with 1 mL reaction mixture. The tubes contained 4 U HRP and 10 μg/mL isoluminol together with the cells that were equilibrated in the Biolumat for 5 min at 37°C, after which the stimulus solution (100 μL) was added. The light emission was recorded continuously over time and presented as superoxide production (in arbitrary light units, cpm x10^-6) as a function of time (min). […] Since the FPR/Fpr-mediated superoxide production with respect to the onset and decline are very similar, the peak activities were used to compare the responses induced.
The release of superoxide anions was continuously measured. […]
Test [4] has as its system FPR2. The test is described as follows: Receptor preference in human neutrophils (FPR2 versus FPR1). Format: cell-based. The following applies: conclusion from superoxide release experiments.
From the text: as §2, §3

Test [5] deals with T3, Fpr2 (Mus musculus, UniProt O88536).
T3 construct: WT mouse neutrophils (5 x 10^4 cells) were pre-incubated without (solid line) or with mF2Pal16; endogenous in cells; host or cells: bone marrow neutrophils of C57BL/6 wild-type mice, TNF-alpha primed
T3 sequence (O88536 1-351): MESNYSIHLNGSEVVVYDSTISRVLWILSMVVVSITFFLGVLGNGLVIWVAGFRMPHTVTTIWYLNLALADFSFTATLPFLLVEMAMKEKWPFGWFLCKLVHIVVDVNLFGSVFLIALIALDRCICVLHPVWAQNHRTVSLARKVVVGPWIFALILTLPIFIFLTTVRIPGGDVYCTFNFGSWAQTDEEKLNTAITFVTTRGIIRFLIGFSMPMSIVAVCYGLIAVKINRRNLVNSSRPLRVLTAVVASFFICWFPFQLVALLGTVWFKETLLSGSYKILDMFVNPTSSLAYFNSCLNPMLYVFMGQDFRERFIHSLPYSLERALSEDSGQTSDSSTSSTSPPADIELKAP
The experiment in a line: Receptor preference in mouse neutrophils (Fpr2 versus Fpr1). Format: cell-based. Conditions: conclusion from superoxide release, Fpr2^-/- cells, desensitization and inhibitors.
From the text: as §4, §5, §6

For test [6], the system named is FPR2. The experiment in a line: Inhibition of F2Pal16 (FPR2 activating pepducin)-induced superoxide release, human neutrophils. Format: cell-based. Conditions: PBP10 1 μM or CysH 1 μM, 5 min pre-incubation; F2Pal16 1 μM; five experiments.
From the text: as §2, §3

Test [7] deals with T3, Fpr2. More on the design: method as in PMID 27614010. Conditions: ref [12]; cited from earlier work. From the text:
When looking at the FPRs in different species it is clear that the receptor family has a complex evolutionary history, as illustrated by the fact that the number of genes in the family vary markedly in mouse and man. […] As different mouse models constitute important tools for translational studies aiming to understa ... || Genetically modified mouse strains and mouse disease models provide excellent tools to study the function of neutrophil FPRs in vivo. Such studies have indicated Fprs (in particular Fpr2) as important regulators of the physiological processes leading to resolution of inflammation. However, a direct translation of mouse data to human studies is hampered due to the distant phylogenetic relationship between mouse and human receptors. In addition to the different number of Fpr genes in mice and humans and an incomplete understanding of the evolutionary relationship between human FPRs ...

The target of test [8] is formyl peptide receptor Fpr2, mouse (mouse (endogenous in bone marrow neutrophils)) (UniProt O88536).
Test [9] has the same target. This is another data set of the same source.

`CCCCCCCCCCCCCCCC(=O)N[C@@H](CCCCN)C(=O)N[C@H](C(=O)N[C@@H](Cc1c[nH]cn1)C(=O)N[C@@H](CCCNC(=N)N)C(=O)N[C@@H](CCC(N)=O)C(=O)NCC(=O)N[C@@H](CC(C)C)C(=O)N[C@H](C(=O)N[C@@H](CCCCN)C(=O)N[C@@H](CO)C(=O)N[C@@H](CO)C(=O)N[C@@H](CCCNC(=N)N)C(=O)N1CCC[C@H]1C(=O)N[C@@H](CC(C)C)C(=O)N[C@@H](CCCNC(=N)N)C(=O)N[C@H](C(=O)O)C(C)C)[C@@H](C)CC)[C@@H](C)CC` [mF1Pal16] (Palmitoyl-KIHRQGLIKSSRPLRV-OH; N-terminus and C-terminus assumed): on mouse neutrophils [1] (WT mouse (C57BL/6) bone marrow neutrophils, TNF-α primed, 5 x 10^4 cells, 37°C, isoluminol/HRP CL, peak activity, pepducin 1 μM in figures), the “superoxide release / activation of WT mouse neutrophils” value is given as “triggered activation of the NADPH-oxidase in mouse neutrophils”. Moreover, the “relative potency, activation of WT mouse neutrophils” value at mouse neutrophils [1] (compared in words with derivatives or other pepducins, 1 μM in Figs 3, 6C, % of fMIFL (10 nM) peak, three independent experiments) was “much lower EC50 value as compared to that of F1Pal16”. The “superoxide release / activation of human neutrophils” value in the test with human neutrophils was “Human neutrophils were not activated; also recorded: does not activate human neutrophils to produce superoxide”. In addition, in the test with Fpr2^-/- neutrophils, the “superoxide release in Fpr2^-/- neutrophils compared with WT” value was “not abolished but significantly reduced”. On FPR2 [2], the “effect on WKYMVM response, human neutrophils” value was “inhibited the response”. Further, the “effect on fMLF response, human neutrophils” value in the test with FPR1 is on record as “did not affect the response”. Further, the “response to second stimulation after PSMα2” value on mouse neutrophils [3] (first PSMα2 50 nM) was “non-responsive to a second stimulation”. Moreover, the “response to second stimulation after fMIFL” value on mouse neutrophils [3] (first fMIFL 10 nM) was “not fMIFL-stimulated cells were non-responsive”. Besides, in the test on FPR2 [4], the “receptor preference / modulation of FPR2 (versus FPR1) in human neutrophils” value is on record as “very similar activities but with somewhat different potency; also recorded: preference for FPR2 over FPR1; also recorded: inhibits the FPR2 activity in human neutrophils; also recorded: negatively target human FPR2”. Also, the “receptor preference / modulation of Fpr2 (versus Fpr1) in mouse neutrophils” value at Fpr2 [5] is reported as “activates primarily Fpr2 in mouse neutrophils; also recorded: positively target the mouse Fpr2; also recorded: can act as an agonist for Fpr2”.

Regarding Cyclosporin H, the “effect of inhibitor on F2Pal16 response, human neutrophils” value in the test on FPR2 [6] is “not by the FPR1 inhibitor cyclosporine H”. Moreover, the “activity at mouse Fprs (earlier work)” value on Fpr2 [7] is “lack effects on their mouse counterparts”.

Turning to Palmitoyl-KIHKQGLIKSSRPLRV [F1Pal16 pepducin (Pal-…)], in test [8], the EC50 of superoxide release by wild-type mouse neutrophils, dose-response of F1Pal16 worked out at 300 nM.

Take Palmitoyl-KIHKKGMIKSSRPLRV [F2Pal16 pepducin (Pal-…)]: the EC50 of superoxide release by wild-type mouse neutrophils, dose-response of F2Pal16 (maximum at 1 uM) in [9] was 300 nM.
